Test results from patent US20040254243A1 (priority 2001, published 2004).
Where two headings read alike, the source gives them in different places.

Experiments:
[1] = pKa values from the literature
[2] = cited from earlier work

Row | pKa ([1]; acetonitrile/water (3/1) and methanol/water (3/1)) | Compound | pK, mean value ([1]; mean of pK1 and pK2) | pKa ([2]; acetonitrile/water (3/1)) | pKa ([2]; methanol/water (3/1))
1 | – | N=C(N)NCCC[C@H](N)C(=O)O [arginine] | about 5.6 | – | –
2 | ~5.5 | CC(C(=O)O)c1cccc(C(=O)c2ccccc2)c1 (stereo not shown) [ketoprofen, 2-(3-benzoylphenyl)propionic acid] | – | 5.02 | 5.94
